In patent US4448781A, “N-Benzyl-imidazoles as selective inhibitors of the thromboxane synthetase enzyme” (Pfizer Inc., priority 1979, dated 1984):
Counter-ions that a name gives are not always drawn.

Key:
[1] = target: T1, prostacyclin synthetase (Sus scrofa, UniProt A0A5G2QT35); settings: pre-incubation of the enzyme; Prostaglandins, 1976, 12, 715; cited from earlier work
T1 construct: Pig aorta microsomes; from tissue; host or cells: pig aorta (microsomes)
T1 sequence (A0A5G2QT35 1-497): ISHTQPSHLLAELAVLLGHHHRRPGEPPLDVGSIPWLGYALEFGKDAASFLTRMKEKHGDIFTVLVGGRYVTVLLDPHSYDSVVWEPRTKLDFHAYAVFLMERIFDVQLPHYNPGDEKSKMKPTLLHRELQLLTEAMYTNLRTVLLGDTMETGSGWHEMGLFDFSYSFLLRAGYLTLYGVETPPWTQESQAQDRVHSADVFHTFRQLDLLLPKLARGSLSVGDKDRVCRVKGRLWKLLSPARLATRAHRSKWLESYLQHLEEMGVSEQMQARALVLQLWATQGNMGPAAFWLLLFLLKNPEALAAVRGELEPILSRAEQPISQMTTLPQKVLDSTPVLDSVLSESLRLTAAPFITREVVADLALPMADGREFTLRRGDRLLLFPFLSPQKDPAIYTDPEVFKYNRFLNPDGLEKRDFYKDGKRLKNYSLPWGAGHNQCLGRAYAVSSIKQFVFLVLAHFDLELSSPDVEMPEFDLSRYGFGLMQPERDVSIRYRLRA

[2] = test system: human blood platelet aggregation; settings: human blood platelets; cited from earlier work
[3] = test system: prostacyclin and thromboxane A2 levels; settings: cited from earlier work
[4] = test system: cyclo-oxygenase enzyme; settings: cited from earlier work
[5] = test system: arachidonic acid induced death in rabbits; settings: rabbit, intravenous injection of arachidonic acid; cited from earlier work
[6] = target: T1, prostacyclin synthetase; assay: Prostacyclin (PGI2) synthetase inhibition (pig aorta microsomes, rabbit aorta bioassay); assay type: biochemical; settings: 5 min pre-incubation, isometric tension of rabbit aorta, read-out: Molar concentration causing 50% inhibition of (3) prostacyclin synthetase
Protocol: 2. Prostacyclin (PGI2) Synthetase
Pig aorta microsomes (Nature, 1976, 263, 663) are incubated (30 sec.: 22° C.) with PGH2 produced as in 1) and aliquots bio-assayed as in 1. […] The test compound is then pre-incubated with the enzyme for 5 minutes, and its ability to prevent the decrease in tension is measured.
(§1) The results of these tests are shown in the following Table, which gives the molar concentration of each compound which caused a 50% change in the effect of the relevant enzyme on isometric tension, i.e. caused a 50% inhibition of the action of that enzyme.

[7] = target: T2, thromboxane synthetase (Homo sapiens, UniProt P24557); assay: Thromboxane A2 (TxA2) synthetase inhibition (indomethacin pre-treated human platelet microsomes, rabbit aorta superfusion bioassay); assay type: biochemical; settings: 5 min pre-incubation, isometric tension of rabbit aorta, read-out: Molar concentration causing 50% inhibition of (1) thromboxane synthetase
T2 construct: Indomethacin pre-treated human platelet microsomes; from tissue; host or cells: human blood platelets (microsomes)
T2 sequence (P24557 1-533): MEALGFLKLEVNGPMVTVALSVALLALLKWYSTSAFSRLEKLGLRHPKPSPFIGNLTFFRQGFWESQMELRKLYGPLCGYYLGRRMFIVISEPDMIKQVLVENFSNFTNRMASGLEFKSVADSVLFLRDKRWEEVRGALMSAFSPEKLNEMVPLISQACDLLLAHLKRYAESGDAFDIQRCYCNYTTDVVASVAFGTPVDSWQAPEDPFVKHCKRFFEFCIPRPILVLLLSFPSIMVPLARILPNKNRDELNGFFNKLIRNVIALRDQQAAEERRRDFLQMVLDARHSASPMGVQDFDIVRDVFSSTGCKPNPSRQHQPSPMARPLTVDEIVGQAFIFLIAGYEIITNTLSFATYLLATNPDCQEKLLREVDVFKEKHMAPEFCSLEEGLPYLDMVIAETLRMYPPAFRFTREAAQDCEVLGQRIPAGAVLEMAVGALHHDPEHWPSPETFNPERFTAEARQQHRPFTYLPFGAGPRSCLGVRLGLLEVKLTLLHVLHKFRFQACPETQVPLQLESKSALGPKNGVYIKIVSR
Protocol: 3. Thromboxane A2 (TxA2) Synthetase
Indomethacin pre-treated human platelet microsomes (Science 1976, 193, 163) are incubated (2 min.: 0° C.) with PGH2 (produced as in 1) and aliquots of the reaction mixture superfused over two rabbit aorta spirals which are separated by a delay coil (2 min.). The latter is required to allow the selective decay of the more unstable thromboxane A2 (Proc. Nat. Acad. Sci., 1975, 72, 2994) thereby enabling the separate measurement of increased isometric tension due to the TxA2 formed and the PGH2 remaining. The test compound is pre-incubated with the enzyme for 5 minutes, and its ability to inhibit the thromboxane synthetase enzyme is measured as its reduction of the TxA2 component of the isometric tension.
as §1

[8] = target: T3, cyclo-oxygenase (Ovis aries, UniProt P05979); assay: Cyclo-oxygenase inhibition (ram seminal vesicle microsomes, rabbit aorta strip bioassay); assay type: biochemical; settings: 5 min pre-incubation, isometric tension of rabbit aorta, read-out: Molar concentration causing 50% inhibition of (2) cyclo-oxygenase
T3 construct: Ram seminal vesicle microsomes; from tissue; host or cells: ram seminal vesicle (microsomes)
T3 sequence (P05979 25-600): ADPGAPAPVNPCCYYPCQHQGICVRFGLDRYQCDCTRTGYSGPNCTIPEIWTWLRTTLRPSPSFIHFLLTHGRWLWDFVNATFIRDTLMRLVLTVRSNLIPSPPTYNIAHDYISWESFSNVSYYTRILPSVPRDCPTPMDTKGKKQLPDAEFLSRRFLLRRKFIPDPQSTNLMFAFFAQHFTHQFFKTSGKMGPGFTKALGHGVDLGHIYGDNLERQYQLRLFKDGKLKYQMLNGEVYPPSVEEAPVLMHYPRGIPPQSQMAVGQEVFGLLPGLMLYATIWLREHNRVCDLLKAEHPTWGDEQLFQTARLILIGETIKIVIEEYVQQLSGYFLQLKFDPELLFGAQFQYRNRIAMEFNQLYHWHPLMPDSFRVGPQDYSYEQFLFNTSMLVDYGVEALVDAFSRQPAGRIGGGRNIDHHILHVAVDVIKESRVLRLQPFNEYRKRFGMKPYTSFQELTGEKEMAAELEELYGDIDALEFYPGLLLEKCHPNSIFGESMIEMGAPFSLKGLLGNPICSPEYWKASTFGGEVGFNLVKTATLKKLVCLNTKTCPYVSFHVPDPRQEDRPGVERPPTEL
Protocol: Ram seminal vesicle microsomes (Biochemistry, 1971, 10, 2372) are incubated with arachidonic acid (100 μM: 1 min.: 22°) to produce PGH2 and aliquots of the reaction mixture injected into a stream of Krebs-bicarbonate at 37° C. (containing a mixture of antagonists (Nature, […], 218, 1135) and indomethacin (Brit. J. Pharmacol., 1972, 45, 451) which is superfusing a spirally-cut rabbit aorta strip (Nature, 1969, 223, 29). The ability of a compound to inhibit the enzyme is measured by comparing the increases in isometric tension produced by PGH2 in the absence of the test compound, and following pre-incubation of the enzyme with the test compound for 5 minutes.
as §1

[9] = test system: aggregation of platelets; settings: rats, abdominal aorta, in vivo; cited from earlier work

| Compound | IC50 [7] | IC50 [8] | further results |
| --- | --- | --- | --- |
| 15-hydroperoxy-arachidonic acid | – | – | prevention of the decrease in PGH2-induced tension (PGI2 synthetase inhibition, in words) [1]: prevented completely |
| CC(=O)Oc1ccccc1C(=O)O [Aspirin] | – | – | inhibitory activity in vitro against a variety of aggregating agents [2]: show inhibitory activity in vitro against a variety of aggregating agents; effect on prostacyclin and thromboxane A2 levels (in words) [3]: reduce both the prostacyclin and thromboxane A2 levels; inhibition of the cyclo-oxygenase enzyme (in words) [4]: inhibit the cyclo-oxygenase enzyme; protection from the lethal effect of intravenous arachidonic acid [5]: protect the rabbit from the lethal effect of the injection |
| Cc1ccc(OCC(=O)O)c(Cn2ccnc2)c1 [Example 2, 2-(1-Imidazolylmethyl)-4-methyl-phenoxyacetic acid hydrochloride hemihydrate] | 8.2 nM | > 100000 nM | IC50 [6]: > 100000 nM |
| Cc1ccc(OCCCC(N)=O)c(Cn2ccnc2)c1 [Example 4, 4-[2-(1-Imidazolylmethyl)-4-methyl-phenoxy]butyramide] | 2.4 nM | > 100000 nM | – |
| Cc1ccc(OCc2ccc(C(=O)O)cc2)c(Cn2ccnc2)c1 [Example 5, 4-[2-(1-Imidazolylmethyl)-4-methyl-phenoxymethyl]benzoic acid] | 47 nM | > 100000 nM | – |
| NC(=O)COc1ccc(Cn2ccnc2)cc1 [Example 8, 4-(1-Imidazolylmethyl)phenoxyacetamide] | 46 nM | > 100000 nM | – |
| O=C(O)COc1cccc(Cn2ccnc2)c1 [Example 24, 3-(1-Imidazolylmethyl)phenoxyacetic acid hydrochloride] | 4.5 nM | – | – |
| O=C1C(CC[S+]([O-])c2ccccc2)C(=O)N(c2ccccc2)N1c1ccccc1 (stereo not drawn) [sulphinpyrazone] | – | – | inhibitory activity in vitro against a variety of aggregating agents [2]: show inhibitory activity in vitro against a variety of aggregating agents; prevention of the aggregation of platelets in an extra corporeal loop [9]: prevent the aggregation of platelets; protection from the lethal effect of intravenous arachidonic acid [5]: protect the rabbit from the lethal effect of the injection |
